The target in one assay is PI3Kdelta (Homo sapiens (Human), UniProt O00329). As to the kind of experiment: HTRF PI3K biochemical assay, delta isoform. The conditions noted are these: 0.3 nM enzyme, 100 uM ATP, 5 uM PIP2, form screened: Neutral. The text has this:
(§1) HTRF PI3K Biochemical Assay to Measure Intrinsic Potency of Compound Inhibitors
(§2) The PI3-Kinase biochemical assays were developed to measure the intrinsic potency and compound dependent inhibition of the alpha, beta, delta, and gamma PI3K isoform enzymes.
(§3) This assay was developed and further optimized from a kit produced by Upstate (Millipore catalog #33-047) and has been configured for HTS (high throughput screening) and SAR screening. Briefly, this procedure exploits the exquisite specificity and high affinity binding of enzyme reaction substrate phosphatidyl(3,4,5)triphosphate (PIP3) to the GRP1 pleckstrin homology (PH) domain to generate the signal. In the absence of PIP3, an HTRF (Homogeneous Time-Resolved Fluorescence energy transfer) complex is formed consisting of europium (Eu)-labeled anti-GST, GSTtagged GRP1-PH domain, biotin-PIP3 and streptavidin conjugated APC. The native PIP3 produced by PI3-Kinase activity disrupts in a competitive manner the biotin-PIP3 from the PH domain, resulting in the loss of energy transfer (HTRF complex) and a decrease in the signal. The format of this assay is the same for all 4 isoforms of PI3K; the differences lie in the concentration of enzyme used to achieve robust assay window. The alpha, beta, and delta assays are run at 0.5, 1, and 0.3 nM enzymes and the gamma assay is run at 5 nM enzyme. The ATP concentration is 100 uM in the alpha, beta, and delta assays and 50 uM ATP in the gamma assay. All reactions are run at 5 uM PIP2.
(§4) Compounds are serially diluted (3-fold in 100% DMSO) across a 384-well polypropylene source plated from column 3 to column 12 and column 13 to column 22, to yield 10 concentration dose response for each test compound. Columns 1, 2, 23 and 24 contain either only DMSO or pharmacological known control inhibitor. Once titrations are made, 2.5 nL of the compounds on 384 well plates are reformatted and transferred by acoustic dispense in quadruplicates to a 1536 assay plate (Greiner) to assay across all four PI3K isoform enzymes.
(§5) The PI3-Kinase biochemical assay was optimized using the HTRF kit provided by Upstate (Millipore). The assay kit contains six reagents: 1) 4× Reaction Buffer; 2) native PIP2 (substrate); 3) Stop (EDTA); 4) Detection Mix A (Streptavidin-APC); 5) Detection Mix B (Eu-labeled Anti-GST plus GST-tagged PH-domain); 6) Detection Mix C. In addition, the following items were obtained or purchased; PI3Kinase (alpha 14-602, beta 14-603, gamma 14-558 and delta 14-604 from Upstate; Millipore), dithiothreitol (Sigma, D-5545), Adenosine-5′ triphosphate (InVitrogen, Cat#AS001A), native PIP3 (PI(3,4,5)P3, diC8, H^+, CELLSIGNALS, INC. Cat #907) DMSO (Sigma, 472301).
(§6) PI3Kinase Reaction Buffer is prepared by dilution the stock 1:4 with de-ionized water. DTT, PIP2 and Biotin-PIP3 were added to 1536 assay plate at a final concentration of 5 mM, […] on the day of use. Enzyme addition and compound pre-incubation are initiated by the addition of 1.25 ul of PI3K (at twice its final concentration) in the 1× reaction buffer to all wells using a BioRaptor. Plates are incubated at RT for 15 minutes. Reactions are initiated by addition of 1.25 ul of 2× substrate solution (PIP2 and ATP in 1× reaction buffer) using BioRaptor. Plates are incubated in humidified chamber at RT for one hour. Reactions are quenched by addition of 0.625 uL of stop solution to all wells using the BioRaptor. The quenched reactions are then processed to detect product formation by adding 0.625 uL of Detection Solution to all wells using the BioRaptor (Detection mix C, Detection Mix A, and Detection Mix B combined together in an 18:1:1 ratio prepared 2 hours prior to use). Following a one hour incubation in the dark, the HTRF signal is measured on the Envision plate reader set for 330 nm excitation and dual emission detection at 620 nM (Eu) and 665 nM (APC).
On the technique in general: TR-FRET usually uses a lanthanide donor and a delayed reading to cut background.

Another assay deals with PI3Kalpha (Homo sapiens (Human), UniProt P42336). As to the kind of experiment: HTRF PI3K biochemical assay, alpha isoform (selectivity versus PI3Kalpha). The conditions noted are these: relative ratio (PI3K-alpha IC50 value/PI3K-delta IC50 value); form screened: Neutral.
Text: as §1, §2, §3, §4, §5
as §6, with “[…]. […]” for “(APC).”

The values that follow come from US10221178B2, “Purine inhibitors of human phosphatidylinositol 3-kinase delta” (MERCK SHARP & DOHME CORP., priority 2015, dated 2019).

Bounds are passed on as bounds.

The term IC50 denotes the point on the concentration scale where inhibition reaches its midpoint. A higher IC50 goes with weaker potency in that assay.

PI3Kdelta, sequence (O00329 whole entry, canonical isoform): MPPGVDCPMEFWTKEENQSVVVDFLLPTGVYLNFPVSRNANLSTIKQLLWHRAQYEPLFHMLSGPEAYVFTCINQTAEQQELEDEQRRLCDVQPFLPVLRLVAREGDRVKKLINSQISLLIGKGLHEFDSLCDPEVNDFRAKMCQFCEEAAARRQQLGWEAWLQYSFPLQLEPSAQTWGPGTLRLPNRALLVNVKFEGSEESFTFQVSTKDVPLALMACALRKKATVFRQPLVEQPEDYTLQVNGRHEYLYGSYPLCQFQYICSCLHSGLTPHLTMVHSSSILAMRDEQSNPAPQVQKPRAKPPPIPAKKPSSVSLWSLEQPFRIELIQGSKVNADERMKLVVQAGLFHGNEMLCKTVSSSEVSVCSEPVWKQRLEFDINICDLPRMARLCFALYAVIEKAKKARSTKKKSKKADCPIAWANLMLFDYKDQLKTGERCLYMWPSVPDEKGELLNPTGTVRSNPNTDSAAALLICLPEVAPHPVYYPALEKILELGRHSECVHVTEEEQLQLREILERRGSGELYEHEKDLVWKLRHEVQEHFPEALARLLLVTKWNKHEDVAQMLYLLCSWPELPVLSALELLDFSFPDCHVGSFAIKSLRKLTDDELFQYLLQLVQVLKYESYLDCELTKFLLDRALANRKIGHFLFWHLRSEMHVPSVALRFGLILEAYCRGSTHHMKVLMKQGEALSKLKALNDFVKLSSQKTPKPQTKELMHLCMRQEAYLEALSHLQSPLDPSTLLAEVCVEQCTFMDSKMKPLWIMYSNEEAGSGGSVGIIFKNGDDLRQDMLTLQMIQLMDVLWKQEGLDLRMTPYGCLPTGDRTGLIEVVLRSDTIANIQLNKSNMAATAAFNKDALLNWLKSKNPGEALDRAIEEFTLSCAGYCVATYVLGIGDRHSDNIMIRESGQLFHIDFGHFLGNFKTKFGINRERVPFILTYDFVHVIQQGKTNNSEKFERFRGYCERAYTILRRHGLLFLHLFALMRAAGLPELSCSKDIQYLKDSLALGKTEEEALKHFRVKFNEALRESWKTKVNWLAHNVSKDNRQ
PI3Kdelta, sequence (P27986 whole entry partner, canonical isoform): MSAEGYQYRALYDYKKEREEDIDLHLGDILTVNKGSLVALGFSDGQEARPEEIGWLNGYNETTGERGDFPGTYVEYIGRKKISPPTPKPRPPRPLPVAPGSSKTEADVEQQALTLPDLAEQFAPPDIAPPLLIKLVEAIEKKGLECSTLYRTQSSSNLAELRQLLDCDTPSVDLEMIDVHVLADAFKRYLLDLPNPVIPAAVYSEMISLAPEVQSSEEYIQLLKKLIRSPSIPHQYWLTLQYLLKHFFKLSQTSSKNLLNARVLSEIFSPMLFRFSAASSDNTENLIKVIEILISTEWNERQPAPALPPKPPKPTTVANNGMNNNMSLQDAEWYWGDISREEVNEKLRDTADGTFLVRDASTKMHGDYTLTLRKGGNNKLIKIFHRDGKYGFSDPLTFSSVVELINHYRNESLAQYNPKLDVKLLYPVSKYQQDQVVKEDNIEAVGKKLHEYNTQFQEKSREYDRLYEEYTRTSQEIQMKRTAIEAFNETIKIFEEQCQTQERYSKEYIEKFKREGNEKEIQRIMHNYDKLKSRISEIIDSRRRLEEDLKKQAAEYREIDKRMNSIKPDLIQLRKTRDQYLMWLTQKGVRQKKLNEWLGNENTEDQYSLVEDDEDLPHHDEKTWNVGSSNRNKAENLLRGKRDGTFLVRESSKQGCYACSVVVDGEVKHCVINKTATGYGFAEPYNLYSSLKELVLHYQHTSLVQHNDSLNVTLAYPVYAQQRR
PI3Kalpha, sequence (P42336 whole entry, canonical isoform): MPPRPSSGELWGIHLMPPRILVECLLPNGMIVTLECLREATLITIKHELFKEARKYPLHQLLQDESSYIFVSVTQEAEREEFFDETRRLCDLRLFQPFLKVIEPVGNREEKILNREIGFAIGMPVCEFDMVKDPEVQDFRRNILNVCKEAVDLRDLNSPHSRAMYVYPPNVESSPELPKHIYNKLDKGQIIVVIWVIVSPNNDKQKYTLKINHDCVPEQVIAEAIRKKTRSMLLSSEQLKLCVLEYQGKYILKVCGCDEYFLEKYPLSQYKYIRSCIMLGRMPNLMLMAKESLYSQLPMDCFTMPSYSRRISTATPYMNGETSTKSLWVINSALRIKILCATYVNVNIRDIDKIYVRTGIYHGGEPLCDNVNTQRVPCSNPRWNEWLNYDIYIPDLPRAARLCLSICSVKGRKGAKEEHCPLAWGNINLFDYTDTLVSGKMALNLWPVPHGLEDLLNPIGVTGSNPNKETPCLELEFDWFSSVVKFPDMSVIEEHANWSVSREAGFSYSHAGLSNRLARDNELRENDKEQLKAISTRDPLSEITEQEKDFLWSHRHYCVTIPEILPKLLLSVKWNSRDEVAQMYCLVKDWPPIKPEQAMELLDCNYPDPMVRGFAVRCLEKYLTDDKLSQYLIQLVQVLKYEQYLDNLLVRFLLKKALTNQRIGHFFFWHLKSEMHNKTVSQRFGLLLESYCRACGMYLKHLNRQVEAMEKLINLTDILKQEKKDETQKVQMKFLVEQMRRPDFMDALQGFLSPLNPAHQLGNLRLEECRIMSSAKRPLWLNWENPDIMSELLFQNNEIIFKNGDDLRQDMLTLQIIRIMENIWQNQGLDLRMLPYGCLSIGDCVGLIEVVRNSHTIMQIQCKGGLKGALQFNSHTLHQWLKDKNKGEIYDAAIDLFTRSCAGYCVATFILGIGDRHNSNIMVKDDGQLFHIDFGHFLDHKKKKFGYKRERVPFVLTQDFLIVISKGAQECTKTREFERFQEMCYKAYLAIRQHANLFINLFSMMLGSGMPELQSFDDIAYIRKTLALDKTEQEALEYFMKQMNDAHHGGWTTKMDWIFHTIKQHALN
PI3Kalpha, sequence (P27986 whole entry partner, canonical isoform): as the sequence (P27986 whole entry partner, canonical isoform) above

As for `CCC(Oc1ncnc2c1nc(-c1cnn(CC)c1C)n2C)C(=O)N1CCOCC1` (racemic) [Compound 1-1, (R and S)-8-(1-ethyl-5-methyl-1H-pyrazol-4-yl)-9-methyl-6-[1-(morpholin-4-ylcarbonyl)propoxy]-9H-purine], 320 nM corresponded to half-maximal inhibition on PI3Kdelta (IC50). The “Selectivity versus PI3Kalpha” value at PI3Kalpha is listed as greater than 10.
On the same counts, the results for `CCn1ncc(-c2nc3c(N[C@@H](Cc4ccccc4)C(=O)N4CCOCC4)ncnc3n2C)c1C` [Compound 2-2, N-[(1S)-1-benzyl-2-morpholin-4-yl-2-oxoethyl]-8-(1-ethyl-5-methyl-1H-pyrazol-4-yl)-9-methyl-9H-purin-6-amine] are 59 nM and greater than 10.
`CC[C@H](Nc1ncnc2c1nc(-c1cnc(C)nc1)n2CC)C(=O)N1CC(OC)C1` [Compound 2-17, 9-ethyl-N-{(1S)-1-[(3-methoxyazetidin-1-yl)carbonyl]propyl}-8-(2-methylpyrimidin-5-yl)-9H-purin-6-amine] came in with an IC50 at PI3Kdelta of 74 nM. The “Selectivity versus PI3Kalpha” value at PI3Kalpha was greater than 10.
Consider `CCn1c(C(F)F)nc2c(N[C@@H](C)C(=O)N3C[C@@H](C)O[C@@H](C)C3)ncnc21` [Compound 2-5, 8-(difluoromethyl)-N-{(1S)-2-[(cis)-2,6-dimethylmorpholin-4-yl]-1-methyl-2-oxoethyl}-9-ethyl-9H-purin-6-amine], for which, at PI3Kdelta, the 50% inhibitory concentration (IC50) worked out at 230 nM. Also, the “Selectivity versus PI3Kalpha” value at PI3Kalpha was greater than 10.
The like results for `CC[C@H](Nc1ncnc2c1nc(-c1cnc(C)nc1)n2CC)C(=O)N1CCC(C#N)CC1` [Compound 2-13, 1-[(2S)-2-{[9-ethyl-8-(2-methylpyrimidin-5-yl)-9H-purin-6-yl]amino}butanoyl]piperidine-4-carbonitrile] were, in that order, 26 nM and greater than 10.
The like results for `CCn1c(-c2cnc(C)nc2)nc2c(N[C@H](C(=O)N3C[C@@H](C)O[C@@H](C)C3)[C@@H](C)OC)ccnc21` [Compound 3-3, N-[(1S,2R)-1-{[(cis)-2,6-dimethylmorpholin-4-yl]carbonyl}-2-methoxypropyl]-3-ethyl-2-(2-methylpyrimidin-5-yl)-3H-imidazo[4,5-b]pyridin-7-amine] were, in that order, 8.6 nM and greater than 10.
On the same counts, the results for `CCn1c(-c2cnc(C)nc2)nc2c(NC3(C(=O)N4CCC(F)(F)CC4)CC3)ncnc21` [Compound 2-3, N-{1-[(4,4-difluoropiperidin-1-yl)carbonyl]cyclopropyl}-9-ethyl-8-(2-methylpyrimidin-5-yl)-9H-purin-6-amine] are 590 nM and greater than 10.
Regarding `CCn1c(-c2cnc(C)nc2)nc2c(N[C@@H](C)CC(=O)N3C[C@@H](C)O[C@@H](C)C3)ncnc21` [Compound 2-53, N-{(1S)-3-[(cis)-2,6-dimethylmorpholin-4-yl]-1-methyl-3-oxopropyl}-9-ethyl-8-(2-methylpyrimidin-5-yl)-9H-purin-6-amine], the IC50 against PI3Kdelta was determined as 37 nM. Also, the “Selectivity versus PI3Kalpha” value on PI3Kalpha is on record as greater than 10.
`CCC(Nc1ncnc2c1nc(-c1cnc(C)nc1)n2CC)C(=O)N1CCOCC1` (single isomer, unassigned) [Compound 1-8, (R or S)-9-ethyl-8-(2-methylpyrimidin-5-yl)-N-[1-(morpholin-4-ylcarbonyl)propyl]-9H-purin-6-amine] came in with an IC50 at PI3Kdelta of 6.5 nM. Moreover, the “Selectivity versus PI3Kalpha” value at PI3Kalpha is greater than 10.
On the same counts, the results for `CCn1c(-c2cnc(C)nc2)nc2c(N[C@@H](COC)C(=O)N3C[C@@H](C)O[C@@H](C)C3)ncnc21` [Compound 2-46, N-[(1S)-2-[(cis)-2,6-dimethylmorpholin-4-yl]-1-(methoxymethyl)-2-oxoethyl]-9-ethyl-8-(2-methylpyrimidin-5-yl)-9H-purin-6-amine] are 27 nM and greater than 10.
The compound `CC[C@H](Nc1ncnc2c1nc(-c1cnc(C)nc1)n2CC)C(=O)N1CC(C(F)F)C1` [Compound 2-11, N-[(1S)-1-{[3-(difluoromethyl)azetidin-1-yl]carbonyl}propyl]-9-ethyl-8-(2-methylpyrimidin-5-yl)-9H-purin-6-amine] showed an IC50 against PI3Kdelta of 60 nM. The “Selectivity versus PI3Kalpha” value on PI3Kalpha was greater than 10.
The like results for `CCn1ncc(-c2nc3c(NC(C)C(=O)N4CCOCC4)ncnc3n2C)c1C` (single isomer, unassigned) [Compound 1-7, (R or S)-8-(1-ethyl-5-methyl-1H-pyrazol-4-yl)-9-methyl-N-(1-methyl-2-morpholin-4-yl-2-oxoethyl)-9H-purin-6-amine] were, in that order, 24 nM and greater than 10.
`CCn1c(-c2cnc(C)nc2)nc2c(N[C@@H](C)C(=O)N3C[C@@H](C)O[C@@H](C)C3)ncnc21` [Compound 2-39, N-{(1S)-2-[(cis)-2,6-dimethylmorpholin-4-yl]-1-methyl-2-oxoethyl}-9-ethyl-8-(2-methylpyrimidin-5-yl)-9H-purin-6-amine]: the IC50 against PI3Kdelta stood at 12 nM. At PI3Kalpha, the “Selectivity versus PI3Kalpha” value is on record as greater than 10.
On the same counts, the results for `CCn1c(-c2cnc(C)nc2)nc2c(NCC3(C(=O)N4C[C@@H](C)O[C@@H](C)C4)CC3)ncnc21` [Compound 2-57, N-[(1-{[(cis)-2,6-dimethylmorpholin-4-yl]carbonyl}cyclopropyl)methyl]-9-ethyl-8-(2-methylpyrimidin-5-yl)-9H-purin-6-amine] are 24 nM and greater than 10.
For the compound `CC[C@H](Nc1ncnc2c1nc(-c1cnc(C)nc1)n2CC)C(=O)N1CCC(OCCOC)CC1` [Compound 2-10, 9-ethyl-N-[(1S)-1-{[4-(2-methoxyethoxy)piperidin-1-yl]carbonyl}propyl]-8-(2-methylpyrimidin-5-yl)-9H-purin-6-amine], it took 62 nM to reach half-maximal inhibition against PI3Kdelta (IC50). Also, on PI3Kalpha, the “Selectivity versus PI3Kalpha” value was greater than 10.
In turn, `CC[C@H](Nc1ncnc2c1nc(-c1cnc(C)nc1)n2CC)C(=O)N1C[C@@H](C)N(C(C)=O)[C@@H](C)C1` [Compound 4-2, N-[(1S)-1-{[cis-4-acetyl-3,5-dimethylpiperazin-1-yl]carbonyl}propyl]-9-ethyl-8-(2-methylpyrimidin-5-yl)-9H-purin-6-amine] displayed an IC50 on PI3Kdelta of 21 nM. Further, on PI3Kalpha, the “Selectivity versus PI3Kalpha” value was greater than 10.
